Experimental data as given in paper PMC6470533, “Structure–Activity Study, Characterization, and Mechanism of Action of an Antimicrobial Peptoid D2 and Its D- and L-Peptide Analogues” (Molecules, 2019).
Converted amounts (≈) assume the structure as drawn. Non-standard residues stand in square brackets, D forms with d. Residues, ends and D or L forms follow the SMILES beside them. N(1-naphthylmethyl)Gly = O=C(O)CNCc1cccc2ccccc12; N(4-MeBn)Gly = Cc1ccc(CNCC(=O)O)cc1; NBuGly = CCCCNCC(=O)O; Nlys = NCCCCNCC(=O)O

Legend:
[1] = test system: Methicillin sensitive Staphylococcus pseudintermedius (26916); assay type: cell-based; settings: 18 h
[2] = test system: Methicillin resistant Staphylococcus pseudintermedius, (C22963); assay type: cell-based; settings: 18 h
[3] = test system: Acinetobacter baumannii, 27065; assay type: cell-based; settings: 27065, 18 h
[4] = test system: Corynebacterium auriscanis, 31551; assay type: cell-based; settings: 18 h
[5] = test system: Enterococcus faecalis, 27404; assay type: cell-based; settings: 27404, 18 h
[6] = test system: Enterococcus faecium, 30951; assay type: cell-based; settings: 30951, 18 h
[7] = test system: Klebsiella pneumoniae, 26233; assay type: cell-based; settings: 26233, 18 h
Proteus mirabilis, 25178 = assay type: cell-based; settings: 25178, 18 h
[8] = test system: Pseudomonas aeruginosa (ATCC 27853); assay type: cell-based; settings: ATCC 27853, 18 h
Method in brief: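 Peptides and peptidomimetics were tested by two-fold dilution in MHB II against bacteria seeded at 5 × 10^5 CFU/mL. Incubation lasted 18 h at 37 °C in ambient air, with visual MIC scoring; data come from two independent days in technical triplicate.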

E. coli, 30235 = assay type: cell-based, Escherichia coli; settings: 30235, 18 h
Method: (§1) To explore the antimicrobial activity of the library of peptides and peptidomimetics, they were tested against Acinetobacter baumannii, Corynebacterium auriscanis, Escherichia coli, Enterococcus faecalis, Enterococcus faecium, Klebsiella pneumonia, Proteus mirabilis, and Pseudomonas aeruginosa. Bacteria grown on agar plates for 18 h at 37 °C were diluted to ~1 × 10^8 CFU/mL in Mueller–Hinton broth (MHB). Two-fold serial dilutions of peptides and peptidomimetics in MHB II were inoculated with bacteria to achieve a final concentration of 5 × 10^5 CFU/mL in polypropylene 96 U-well microtiter plates (Almeco, Esbjerg, Denmark), followed by incubation at 37 °C in ambient air for 18 h. The MIC values were determined as the lowest concentration showing no visible bacterial growth. Experiments were performed twice (in technical triplicates) on two different days.

[9] = test system: clinical MRSP strain C22963; assay: Time–kill kinetics; assay type: cell-based, Staphylococcus pseudintermedius; settings: after 6 h, MRSP C22963, 10^5 CFU/mL in MHB
Method: The time–kill experiments of D2 against the methicillin-resistant S. pseudintermedius strain C22963 were performed using an in-house protocol adopted and modified from Blondeau et al.: the bacterium was grown overnight on a blood agar plate. The next day, an inoculum was transferred to MHB and incubated for 2 h at 37 °C to reach exponential growth phase. […] Aliquots were removed at 1 h intervals up to 6h and spotted in triplicate on blood agar plates, and incubated overnight at 37 °C. Colonies were counted and CFU per mL was calculated.

[10] = test system: DNA synthesis in MRSP E104; assay: Macromolecule biosynthesis assay, DNA (3H-thymidine); assay type: cell-based, Staphylococcus pseudintermedius; settings: 0.5× MIC, 20 min incubation, MRSP E104, 3H-thymidine; means of two experiments
Method: (§2) The effect on DNA and cell wall synthesis was investigated after 20 min of incubation of MRSP E104 with the precursors ^3H-thymidine and ^3H-glucosamine hydrochloride, respectively, as previously reported by Ling et al.. Following macromolecule precipitation, radioactivity was counted using scintillation fluid. Incorporation of ^3H- or ^14C-labeled thymidine has been used to investigate DNA replication and transcriptional activity during the cell cycle; ^3H-glucosamine hydrochloride has been used in a mode of action study for the antimicrobial peptide plectasin, which targets the cell wall precursor lipid II [44].
(§3) Macromolecules (DNA and cell wall) biosynthesis rates were measured using strain MRSP E104 following a protocol adapted from Ling et al.. Briefly, overnight culture of E104 was diluted 1:100 in MHB and freshly grown up to OD 0.2 at 600 nm. Grown cells were pelleted down by centrifugation and then resuspended in fresh MHB medium followed by incubation for 20 min on a dry heat-bath with D2 or analogues or nisin and radiolabeled precursor: (50 µCi) ^3H-Thymidine (PerkinElmer) and (5 µCi) ^3H-glucosamine hydrochloride per mL for DNA and cell wall, respectively. A positive control without antimicrobials was maintained that corresponds to 100% synthesis rate. After 20 min of incubation, samples were precipitated with equal volume of cold 30% trichloroactic acid (TCA Sigma, Søborg, Denmark) on ice. After 15 to 30 min of incubation on ice, precipitates were filtered on a membrane filter and subsequently washed twice with cold 15% TCA and twice with cold water using a vacuum manifold. Next, filters were air dried overnight and then moved to 10 mL scintillation vials. Finally, 3 mL scintillation fluid was added to each vial and ^3H count was taken in Beckman Coulter LS6500 liquid scintillation counter for 1 min. The radioactive counts of the control samples with no antimicrobial exposure were considered to have 100% precursor incorporation and macromolecule synthesis. The percentage rates of macromolecule synthesis in the antimicrobial-exposed samples were calculated compared to control. Each experiment was performed twice with a technical replicate, and the average rates of synthesis were plotted.

[11] = test system: cell wall synthesis in MRSP E104; assay: Macromolecule biosynthesis assay, cell wall (3H-glucosamine hydrochloride); assay type: cell-based, Staphylococcus pseudintermedius; settings: 0.5× MIC, 20 min incubation, MRSP E104, 3H-glucosamine hydrochloride; means of two experiments
Method: as §2, §3

S. aureus = assay: MIC against canine clinical S. aureus strains (Table S2); assay type: cell-based, Staphylococcus aureus
Method: (§4) Similarly, in this study, to assess the degree of selectivity for S. pseudintermedius, D2 and D2D were tested against a collection of S. aureus and MSSP strains (Table S2).
as §1

S. pseudintermedius = assay: MIC against canine clinical S. pseudintermedius strains (Table S2); assay type: cell-based, Staphylococcus pseudintermedius
Method: as §4, §1

red blood cell (RBC) = settings: 0.5% RBC suspension in PBS, 1 h, 37 °C, read at 414 nm, normalized to mellitin and PBS, triplicates
Method: Briefly, 75 µL of peptide in PBS was mixed with 75 µL of a 0.5% red blood cell (RBC) suspension in PBS, and incubated for 1 h at 37 °C. The hemoglobin release was then measured at 414 nm and normalized, using mellitin as positive control and PBS as negative control. Experiments were done in triplicates.

CCCCN(CC(N)=O)C(=O)CN(CCCCN)C(=O)CN(Cc1cccc2ccccc12)C(=O)CN(CCCCN)C(=O)CN(Cc1ccc(C)cc1)C(=O)CN(Cc1cccc2ccccc12)C(=O)CN(CCCCN)C(=O)CNCCCCN [D2] (H-[Nlys][Nlys][N(1-naphthylmethyl)Gly][N(4-MeBn)Gly][Nlys][N(1-naphthylmethyl)Gly][Nlys][NBuGly]-NH2)
MIC MSSP [1]: 2 to 4 µg/mL | MIC MRSP [2]: 4 µg/mL (≈ 3.34 µM) | MIC Acinetobacter baumannii [3]: >64 µg/mL | MIC Corynebacterium auriscanis [4]: 2 µg/mL (≈ 1.67 µM) | MIC Enterococcus faecalis [5]: >64 µg/mL | MIC Enterococcus faecium [6]: 16 µg/mL (≈ 13.3 µM) | MIC Klebsiella pneumoniae [7]: >64 µg/mL | MIC Proteus mirabilis (Proteus mirabilis, 25178): >64 µg/mL | MIC PA [8]: 16 µg/mL (≈ 13.3 µM) | MIC E. coli (E. coli, 30235): 64 µg/mL (≈ 53.4 µM) | log reduction in time–kill ([9]; 1× MIC): 1.5 log | log reduction in time–kill ([9]; 2× MIC): 2.7 log | inhibition of DNA biosynthesis rate [10]: < 5% | effect on (inhibition of) cell wall synthesis [11]: 28% | MIC S. aureus 25054 (S. aureus; 25054, 8 G6, dog, wound, 2009): 4 µg/mL (≈ 3.34 µM) | MIC S. aureus 27266 (S. aureus; 27266, 16 G9, dog, skin, 2010): 8 µg/mL (≈ 6.67 µM) | MIC S. aureus 28264 (S. aureus; 28264, 20 B1, dog, wound, 2011): 4 µg/mL (≈ 3.34 µM) | MIC S. aureus 30935 (S. aureus; 30935, 24 B9, dog, joint, 2013): 4 µg/mL (≈ 3.34 µM) | MIC S. aureus 36968 (S. aureus; 36968, 61 A9, dog, wound, 2016): 4 µg/mL (≈ 3.34 µM) | MIC S. aureus 37595 (S. aureus; 37595, 65 D2, dog, joint, 2016): 4 µg/mL (≈ 3.34 µM) | MIC S. aureus 37708-2 (S. aureus; 37708-2, 66 C6, dog, skin, 2016): 8 µg/mL (≈ 6.67 µM) | MIC S. aureus 38200 (S. aureus; 38200, 68 E9, dog, skin, 2016): 4 µg/mL (≈ 3.34 µM) | MIC S. aureus 38565-1 (S. aureus; 38565-1, 70 A5, dog, skin, 2017): 4 µg/mL (≈ 3.34 µM) | MIC S. aureus 38841 (S. aureus; 38841, 70 G5, dog, urine, 2017): 8 µg/mL (≈ 6.67 µM) | MIC S. pseudintermedius 22963 (S. pseudintermedius; 22963, 3 B9, dog, ?, 2007): 1 to 2 µg/mL | MIC S. pseudintermedius 26071 (S. pseudintermedius; 26071, 11 E5, dog, skin, 2009): 1 µg/mL (≈ 0.834 µM) | MIC S. pseudintermedius 26092-2 (S. pseudintermedius; 26092-2, 11 E4, dog, skin, 2009): 1 µg/mL (≈ 0.834 µM) | MIC S. pseudintermedius 26959 (S. pseudintermedius; 26959, 15 F8, dog, wound, 2010): 2 µg/mL (≈ 1.67 µM) | MIC S. pseudintermedius 27364 (S. pseudintermedius; 27364, 17 A7, dog, wound, 2011): 1 µg/mL (≈ 0.834 µM) | MIC S. pseudintermedius 27382 (S. pseudintermedius; 27382, 17 B8, dog, ear, 2011): 1 µg/mL (≈ 0.834 µM) | MIC S. pseudintermedius 31524 (S. pseudintermedius; 31524, 54 C3, dog, ear, 2013): 1 µg/mL (≈ 0.834 µM) | MIC S. pseudintermedius 33228 (S. pseudintermedius; 33228, 55 E2, dog, skin, 2014): 1 µg/mL (≈ 0.834 µM) | MIC S. pseudintermedius 35890 (S. pseudintermedius; 35890, 59 B8, dog, ear, 2015): 1 µg/mL (≈ 0.834 µM) | MIC S. pseudintermedius 37526-1 (S. pseudintermedius; 37526-1, 65 B4, dog, skin, 2016): 1 µg/mL (≈ 0.834 µM) | MIC S. pseudintermedius 37535-1 (S. pseudintermedius; 37535-1, 65 B6, dog, skin, 2016): 1 µg/mL (≈ 0.834 µM) | MIC S. pseudintermedius 38637 (S. pseudintermedius; 38637, 70 C3, dog, wound 2017): 1 µg/mL (≈ 0.834 µM) | MIC S. pseudintermedius 38820 (S. pseudintermedius; 38820, 70 F9, dog, urine 2017): 1 µg/mL (≈ 0.834 µM) | HA, percentage of hemolysis at 150 µM (red blood cell (RBC)): 24%
